Molecular target: T1, OA/TAT (octopamine/tyramine transporter) (Trichoplusia ni, UniProt Q95VZ4, D309A/R312W)
T1 sequence (Q95VZ4 75-744 D309A/R312W): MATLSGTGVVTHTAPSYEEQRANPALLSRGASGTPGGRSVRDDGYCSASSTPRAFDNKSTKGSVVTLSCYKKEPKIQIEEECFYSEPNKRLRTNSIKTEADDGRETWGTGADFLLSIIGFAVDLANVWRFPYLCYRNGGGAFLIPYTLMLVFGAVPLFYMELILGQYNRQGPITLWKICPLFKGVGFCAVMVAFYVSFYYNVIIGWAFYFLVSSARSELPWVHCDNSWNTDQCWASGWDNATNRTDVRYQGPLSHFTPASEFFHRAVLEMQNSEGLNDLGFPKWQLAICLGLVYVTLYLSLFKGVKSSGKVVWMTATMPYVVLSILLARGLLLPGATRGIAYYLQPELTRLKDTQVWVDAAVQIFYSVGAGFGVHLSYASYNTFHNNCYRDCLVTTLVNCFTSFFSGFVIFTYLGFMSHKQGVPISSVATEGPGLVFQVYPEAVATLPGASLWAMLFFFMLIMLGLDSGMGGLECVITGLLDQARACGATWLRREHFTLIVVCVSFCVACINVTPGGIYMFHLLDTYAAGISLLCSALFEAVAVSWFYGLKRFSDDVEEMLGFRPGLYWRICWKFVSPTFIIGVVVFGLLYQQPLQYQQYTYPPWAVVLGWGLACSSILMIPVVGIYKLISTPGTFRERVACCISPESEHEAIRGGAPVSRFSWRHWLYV
Assay: 3H-dopamine uptake by OA/TAT expressed in baculovirus-infected Sf21 insect cells (transport assay)
Type: cell-based
Settings: for inhibition at 10 µM: read-out: % Inhibition of 3H-Dopamine uptake by OA/TAT

SMILES	IC50	Ki	inhibition at 10 µM
NCCc1ccc(O)cc1 [Tyramine]	0.39 ± 0.11 µM	0.35 ± 0.1 µM	96.5%
NCCc1c[nH]c2ccccc12 [Tryptamine]	–	–	9.57%
CN[C@@H](C)[C@@H](O)c1ccccc1 [Pseudoephedrine, (−)-ψ-Ephedrine]	–	–	1.31%
CNCC(O)c1ccc(O)cc1 (racemic) [Synephrine, (±)-Synephrine]	–	–	6.39%
NCC(O)c1ccc(O)cc1 (racemic) [Octopamine, DL-Octopamine]	1.92 ± 0.28 µM	1.74 ± 0.25 µM	80.9%
Fc1ccc(C(OCCN2CCN(CCCc3ccccc3)CC2)c2ccc(F)cc2)cc1 [GBR12909]	–	–	-10%
NCCc1c[nH]cn1 [Histamine]	–	–	-1.81%
NCCc1ccc(O)c(O)c1 [Dopamine, 3-Hydroxytyramine]	4.1 ± 1.02 µM	3.72 ± 0.92 µM	70.2%
NCCc1c[nH]c2ccc(O)cc12 [Serotonin, 5-Hydroxytryptamine]	–	–	-3.6%
NC[C@H](O)c1ccc(O)c(O)c1 [Norepinephrine, (−)-Arterenol]	22 ± 2.94 µM	20 ± 2.67 µM	27.2%
